Laboratory results: the supplement of paper PMC10307832

What was measured:
Experiment in all cases: relative viability (nuclei count vs DMSO), 5 days (fraction); higher = more cells survive
Cediranib + Tozasertib = compound: COc1cc2c(Oc3ccc4[nH]c(C)cc4c3F)ncnc2cc1OCCCN1CCCC1 [Cediranib] + Cc1cc(Nc2cc(N3CCN(C)CC3)nc(Sc3ccc(NC(=O)C4CC4)cc3)n2)n[nH]1 [Tozasertib] (partner 0.1 µM)
Method in brief: (§1)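 Values are medians from duplicate plates. Each reflects relative viability, defined as the nuclei count of treated wells over that of vehicle wells. Lung cancer cell lines in 1536-well plates were pin-tool dosed one day after seeding with one drug alone or with a fixed anchor-drug dose plus five library-drug doses (not always all listed) in √10 steps, then fixed, stained and imaged at 4× after 5 days.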

[1] = compound: O=C(C[C@H]1NCCC[C@@H]1O)Cn1cnc2cc(Br)c(Cl)cc2c1=O (racemic) [Halofuginone] + N=C(N)NC(=N)NCCc1ccccc1 [Phenformin] (partner 250 µM)
Method in brief: as §1

Decitabine + Luminespib = compound: Nc1ncn([C@H]2C[C@H](O)[C@@H](CO)O2)c(=O)n1 [Decitabine] + CCNC(=O)c1noc(-c2cc(C(C)C)c(O)cc2O)c1-c1ccc(CN2CCOCC2)cc1 [Luminespib] (partner 0.01 µM)
Method in brief: as §1

Halofuginone + Lapatinib = compound: O=C(C[C@H]1NCCC[C@@H]1O)Cn1cnc2cc(Br)c(Cl)cc2c1=O (racemic) [Halofuginone] + CS(=O)(=O)CCNCc1ccc(-c2ccc3ncnc(Nc4ccc(OCc5cccc(F)c5)c(Cl)c4)c3c2)o1 [Lapatinib] (partner 2 µM)
Method in brief: as §1

| Cell Line | relative viability (Cediranib + Tozasertib; first compound 0.04 µM) | relative viability (Cediranib + Tozasertib; first compound 0.1265 µM) | relative viability (Cediranib + Tozasertib; first compound 0.4 µM) | relative viability (Cediranib + Tozasertib; first compound 1.265 µM) | relative viability (Cediranib + Tozasertib; first compound 4 µM) | relative viability ([1]; first compound 0.001 µM) | relative viability ([1]; first compound 0.003162 µM) | relative viability ([1]; first compound 0.01 µM) | relative viability ([1]; first compound 0.03162 µM) | relative viability ([1]; first compound 0.1 µM) | relative viability (Decitabine + Luminespib; first compound 0.04 µM) | relative viability (Decitabine + Luminespib; first compound 0.1265 µM) | relative viability (Decitabine + Luminespib; first compound 0.4 µM) | relative viability (Decitabine + Luminespib; first compound 4 µM) | relative viability (Halofuginone + Lapatinib; first compound 0.001 µM) | relative viability (Halofuginone + Lapatinib; first compound 0.003162 µM) | relative viability (Halofuginone + Lapatinib; first compound 0.01 µM) | relative viability (Halofuginone + Lapatinib; first compound 0.03162 µM) | relative viability (Halofuginone + Lapatinib; first compound 0.1 µM) | relative viability (Decitabine + Luminespib; first compound 1.265 µM) |
| --- | --- | --- | --- | --- | --- | --- | --- | --- | --- | --- | --- | --- | --- | --- | --- | --- | --- | --- | --- | --- |
| 201T | 1.1 | 1.19 | 0.875 | 0.966 | 0.889 | 0.459 | 0.472 | 0.442 | 0.457 | 0.348 | 0.984 | 0.987 | 1.07 | 0.75 | 1.02 | 0.97 | 1.05 | 1.04 | 1.04 | – |
| A549 | – | – | – | – | – | 0.186 | 0.215 | 0.148 | 0.163 | 0.109 | – | – | – | – | 0.993 | 0.973 | 0.928 | 0.603 | 0.203 | – |
| A-427 | 0.208 | – | 0.198 | 0.237 | 0.217 | 0.304 | 0.346 | 0.326 | 0.293 | 0.272 | 0.65 | 0.466 | 0.303 | 0.227 | 1.08 | 0.977 | 1.01 | 1.07 | 1.07 | 0.262 |
| ABC-1 | 0.161 | 0.179 | 0.186 | – | 0.191 | 0.27 | 0.223 | 0.24 | 0.234 | 0.209 | – | 0.807 | 0.521 | 0.331 | 1.22 | 1.32 | 1.1 | 1.06 | 0.912 | 0.345 |
| BEN | 0.446 | – | 0.554 | – | 0.627 | 0.263 | 0.263 | 0.26 | 0.285 | 0.237 | 0.332 | 0.373 | 0.243 | 0.242 | 0.782 | 0.881 | 0.861 | 0.588 | 0.443 | 0.282 |
| CAL-12T | 0.333 | 0.333 | 0.29 | 0.397 | 0.293 | 0.582 | 0.592 | 0.555 | 0.603 | 0.509 | 0.612 | 0.359 | – | 0.249 | 0.765 | 0.609 | – | 0.729 | 0.561 | 0.298 |
| COR-L23 | 0.182 | 0.192 | 0.19 | 0.264 | 0.183 | 0.489 | 0.431 | 0.482 | 0.415 | 0.303 | 0.331 | 0.402 | 0.298 | 0.148 | 0.924 | 1.06 | 0.95 | 1.01 | 0.379 | 0.222 |
| COR-L 105 | 0.392 | 0.364 | 0.343 | 0.329 | 0.388 | 0.492 | 0.467 | 0.488 | 0.516 | 0.381 | 0.561 | 0.517 | 0.714 | 0.571 | 0.438 | 0.39 | 0.317 | 0.374 | 0.285 | 0.469 |
| Calu-6 | – | – | – | – | – | – | – | – | – | – | – | – | – | – | 1.18 | 1 | 1.05 | 0.689 | 0.176 | – |
| ChaGo-K-1 | 0.214 | 0.263 | 0.236 | 0.202 | 0.209 | 0.473 | 0.486 | 0.573 | 0.392 | 0.462 | 0.584 | 0.487 | 0.33 | 0.39 | – | – | – | – | – | 0.277 |
| EBC-1 | – | – | – | – | – | – | – | – | – | – | – | – | – | – | 0.223 | 0.247 | 0.233 | 0.266 | 0.245 | – |
| EKVX | 0.349 | 0.502 | 0.366 | 0.436 | 0.473 | 0.236 | 0.241 | 0.232 | 0.226 | 0.199 | 0.68 | 0.682 | 0.551 | 0.322 | 0.22 | 0.213 | 0.183 | 0.203 | 0.202 | 0.389 |
| EMC-BAC-2 | 0.284 | 0.238 | 0.278 | 0.286 | 0.3 | 0.615 | 0.546 | 0.503 | 0.521 | 0.338 | 1.02 | 0.927 | 0.715 | 0.584 | 0.952 | 0.888 | 0.86 | 0.89 | 0.807 | 0.602 |
| EPLC-272H | 0.267 | – | 0.31 | – | 0.297 | 0.314 | 0.267 | 0.311 | 0.312 | 0.286 | – | 0.561 | 0.249 | 0.321 | 0.891 | 0.851 | 0.976 | 0.958 | 0.907 | 0.227 |
| H3255 | 0.578 | – | 0.599 | 0.654 | 0.43 | 0.399 | 0.372 | 0.293 | 0.401 | 0.369 | – | 0.765 | 0.64 | 0.601 | 0.272 | 0.255 | 0.241 | 0.259 | 0.235 | 0.657 |
| HARA | 0.125 | – | 0.107 | 0.118 | 0.123 | 0.486 | 0.465 | 0.487 | 0.48 | 0.363 | 0.802 | 0.544 | 0.34 | 0.158 | 0.705 | 0.637 | 0.721 | 0.667 | 0.555 | 0.144 |
